One test deals with T1, PfENT1 V345I (Plasmodium falciparum, UniProt Q8IDM6, V345I).
T1 sequence (Q8IDM6 1-422 V345I): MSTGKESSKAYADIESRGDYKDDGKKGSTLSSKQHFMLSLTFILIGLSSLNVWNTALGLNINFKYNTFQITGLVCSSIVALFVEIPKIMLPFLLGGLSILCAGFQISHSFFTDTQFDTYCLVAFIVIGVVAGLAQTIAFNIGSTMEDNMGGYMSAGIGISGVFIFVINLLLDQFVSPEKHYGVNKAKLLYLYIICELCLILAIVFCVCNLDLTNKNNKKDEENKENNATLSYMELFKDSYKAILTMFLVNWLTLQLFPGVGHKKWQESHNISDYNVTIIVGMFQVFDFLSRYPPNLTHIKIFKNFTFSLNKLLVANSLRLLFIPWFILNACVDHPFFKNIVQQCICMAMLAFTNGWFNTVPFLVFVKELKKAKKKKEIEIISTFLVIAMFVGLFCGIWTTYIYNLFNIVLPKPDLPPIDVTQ
Briefly: [3H]uridine uptake inhibition by purines in PfENT1-SNP-expressing yeast. In kind it is cell-based.

Test [1] concerns the target T2, PfENT1 F36S/V129I/L133F/P417L (Quad) (Plasmodium falciparum, UniProt Q8IDM6, F36S/L133F/P417L/V129I).
T2 sequence (Q8IDM6 1-422 F36S/V129I/L133F/P417L): T1 sequence (Q8IDM6 1-422 V345I) with F36S, V129I, L133F, I345V, P417L
The test is described as above. In kind it is cell-based.

Each structure is given as a SMILES string. Where a chain is given by its changes, count along the chain named.

Usually IC50 stands for the point on the concentration scale where inhibition reaches its midpoint. A high value points to weaker potency. As for `Nc1ncnc2nc[nH]c12` [Adenine, adenine], the IC50 against PfENT1 V345I was found to be 225 ± 17 µM; in test [1], 362 ± 56 µM.

For `O=c1[nH]cnc2nc[nH]c12` [Hypoxanthine, hypoxanthine], the 50% inhibitory concentration (IC50) is 161 ± 57 µM on PfENT1 V345I and 108 ± 5 µM in test [1].

On to `OC[C@H]1O[C@@H](n2cnc3c(O)ncnc32)[C@H](O)[C@@H]1O` [Inosine, inosine], for which the IC50 at PfENT1 V345I was found to be 4 ± 0.2 µM; in test [1] it was 12 ± 1 µM.

(Values after publication PMC9218960 (ACS infectious diseases, 2020).)
